In brackets after ≈: the same amount, converted by molar mass.
How the values were obtained:
bleeding time = assay: Effect on bleeding time (in vivo); set-up: species or system ddy-male mice; conditions: Mus musculus; oral, 3 hours before tail cut; dose required to induce at least 50% prolongation of bleeding time vs control; read-out: minimum effective dose, prolonging effect on the bleeding time
Procedure: A test compound (suspended or dissolved in an aqueous 0.25% carboxymethylcellulose solution) was orally administered to ddy-male mice (5 weeks old, 10 mice per group) fasted overnight. Three hours later, the tip (ca. 2 mm) of the tail was cut off under ether anesthesia, and said tail was immersed in physiological saline (37° C.) immediately. The bleeding time (seconds) of the medicated group of mice was compared with that of a control group of mice to which an aqueous 0.25% CMC solution was administered instead of the test compound solution. The prolonging effect of each test compound on the bleeding time was estimated in terms of a minimum effective dose, i.e., the dose required to induce at least 50% prolongation of the bleeding time as compared with that of the control group.

[1] = system: arachidonic acid-induced pulmonary embolism; assay: Effect on arachidonic acid-induced pulmonary embolism (in vivo); set-up: species or system ddy-male mice; conditions: Mus musculus; oral, 3 hours before arachidonic acid; dose required to shorten the recovery time by at least 15% vs control; read-out: Minimum Effective Dose, inhibiting effect on arachidonic acid-induced pulmonary embolism
Procedure: A test compound (suspended or dissolved in an aqueous sodium bicarbonate and 0.25% carboxymethylcellulose solution) was orally administered to ddy-male mice (5 weeks old, 10 mice per group) fasted overnight. Three hours later, arachidonic acid (125 mg/2.5 ml of 1% NaHCO3 solution+7.5 ml of 0.9% aqueous sodium chloride/kg) was injected to the tail vein of mice to induce pulmonary embolism, and the recovery time(minutes) of locomotive activity of the mice (i.e., the duration from the injection of arachidonic acid to the time the mice recovered from respiratory distress and began to walk) was compared with that of a control group of mice to which an aqueous 0.25% CMC solution was administered instead of the test compound solution. The inhibiting effect of each test compound on arachidonic acid-induced pulmonary embolism was estimated in terms of a minimum effective dose, i.e., the dose required to shorten the recovery time by at least 15% as compared with the control group.

[2] = system: collagen-induced platelet aggregation; assay: Effect on collagen-induced platelet aggregation (in vitro); assay type: cell-based, human; conditions: for IC50: 2 min, human platelet-rich plasma, 4×10^5 cells/mm^3, 2 minutes at 37° C., Born's method, read-out: IC50, collagen-induced platelet aggregation-inhibiting activity
Procedure: Nine volumes of blood collected from a healthy human were mixed with one volume of 3.13% (w/v) trisodium citrate solution, and the mixture was centrifuged to give platelet-rich plasma ("PRP") as the supernatant. The bottom layer was further centrifuged to give platelet-poor plasma ("PPP") as the supernatant. PRP was diluted with PPP so that the platelet count was about 4×10^5 cells/mm^3. 25 μl of a test compound solution containing an equimolar amount of sodium bicarbonate was added to 200 μl of said diluted PRP. After the mixture was stirred for 2 minutes at 37° C., a collagen solution [25-29 μg/ml solution: Biochim. Biophys. Acta, 186, 254 (1969)] was added thereto to induce platelet aggregation. The degree of platelet aggregation was examined by Born's method (Nature, 194, 927 (1962)), and the platelet aggregation-inhibiting activity of the test compound was estimated. The platlet aggregation-inhibiting activity of the test compound was expressed as IC50, i.e., the concentration of the test compound required to induce 50% inhibition of collagen-induced platelet aggregation.

IC50 [2] [µg/mL] | SMILES | minimal effective dose (bleeding time) [mg/kg] | minimal effective dose [1] [mg/kg] | platelet aggregation-inhibiting activity relative to 4-(2-benzenesulfonylaminoethyl)phenoxyacetic acid ([2]; in vitro, times as strong as known compound of JP 35910/1982)
0.7 (≈ 1.82 µM) | CC(Cc1ccc(OCC(=O)O)cc1)NS(=O)(=O)c1ccc(Cl)cc1 (racemic) [Compound No. 1, (±)4-[2(4-chlorophenyl)sulfonylaminopropyl]phenoxyacetic acid] | 3 | 1 | –
0.5 (≈ 1.3 µM) | CC(CNS(=O)(=O)c1ccc(Cl)cc1)c1ccc(OCC(=O)O)cc1 (racemic) [Compound No. 2, (±)4-[2(4-chlorophenyl)sulfonylamino-1-methylethyl]phenoxyacetic acid] | 10 | 0.3 | about 4 times
0.5 (≈ 1.17 µM) | CC(CNS(=O)(=O)c1ccc(Br)cc1)c1ccc(OCC(=O)O)cc1 (racemic) [Compound No. 3, (±)4-[2(4-bromophenyl)sulfonylamino-1-methylethyl]phenoxyacetic acid] | 10 | 0.1 | –
– | CC(CNS(=O)(=O)c1ccccc1)c1ccc(OCC(=O)O)c(F)c1 (racemic) [Compound No. 4, (±)4-(2-benzenesulfonylamino-1-methylethyl)-2-fluorophenoxyacetic acid] | – | 0.1 | –
– | CC(CNS(=O)(=O)c1ccc(Cl)cc1)c1ccc(OCC(=O)O)c(F)c1 (racemic) [Compound No. 5, (±)4-(2-(4-chlorophenyl)sulfonylamino-1-methylethyl)-2-fluorophenoxyactic acid] | – | 0.03 | –
2 (≈ 5.96 µM) | O=C(O)COc1ccc(CCNS(=O)(=O)c2ccccc2)cc1 [Known Compound, 4-(2-benzenesulfonylaminoethyl)phenoxyacetic acid, reference compound] | 30 | 30 | –

Source: US4866196A, “Phenoxyacetic acid derivatives and preparation thereof” (Tanabe Seiyaku Co., Ltd., priority 1986, dated 1989)
